Laboratory results from patent US20130095068A1, “AGENT FOR TREATING HCV INFECTION” (priority 2010, published 2013).

system: HCV subgenomic replicon (LucNeo#2 replicon cells); assay: HCV replication inhibition in LucNeo#2 replicon cells, luciferase corrected by cell number (Alamar Blue); assay type: cell-based; details: Hepatitis C virus, 96 h, read-out: Inhibition (%) at 1 uM
Protocol: LucNeo#2 replicon cells, which were the HCV subgenomic replicon cells used in Test Example 2, were used to examine HCV replication inhibitory-activity, from which signals were corrected by using cell number.
LucNeo#2 replicon cells cultured to confluency were recovered by trypsin treatment, and were spread on a collagen-coated plate at a density of 1000 cells/well. The cell culture was conducted in an incubator at 37° C., 5% CO2, with 10% FBS/DMEM (containing mixed solution of penicillin-streptomycin and a non-essential amino acid). On the following day or the evening after confirmation of cell adhesion, a compound of formula (I) as the Test compound was added to final concentration of 1.0 to 1.3 μM. At 4 days after the Test compound addition, Alamar Blue diluted 5-fold with PBS(−) was added in an amount of 1/10 for measurement of the fluorescence, to determine the cell count. After the Alamar Blue measurement, the luminescence from intracellular luciferase activity was determined by adding substrate solution in an amount of 5/11 using a Promega kit.
The Alamar Blue activity and luciferase activity were determined by subtracting the values measured for wells without cells. Next, the luciferase activity value×1000 was divided by the value from Alamar Blue measurement, then, the total activity was defined as the value calculated without the Test compound, and the percentages of inhibition by the Test compound was calculated in respect to total activity and listed in Table 4.

Question: COc1cc(/C=C2\CCCN([C@@H](C)c3ccc(F)cc3)C2=O)ccc1-n1cnc(C)c1 [compound 53] was tested. Which inhibition at 1 µM did it give?
Answer: 30.9%

same assay, conditions: Hepatitis C virus, 96 h; 1 uM, 4 days, luciferase activity per Alamar Blue value; read-out: Inhibition (%) at 1 uM

Question: For COc1cc(/C=C/C(=O)NC2CCc3ccccc32)ccc1-n1cncc1Cl (centres unmarked) [compound 32], which inhibition at 1 µM is on record?
Answer: 71.8%

Question: Which inhibition at 1 µM does the source give for COc1cc(/C=C/C(=O)N(CCO)Cc2ccccc2)ccc1-n1cc(C)nc1C [compound 49] here?
Answer: 71.6%

Question: With Cc1cncn1-c1ccc(/C=C/C(=O)NC2CCc3ccccc32)cc1C#N (centres unmarked) [compound 25] as the compound, how does the inhibition at 1 µM read?
Answer: 83.5%

Question: For Cc1cn(-c2ccc(/C=C/C(=O)NC3CCc4ccccc43)cc2Cl)cn1 (centres unmarked) [compound 19], which inhibition at 1 µM is on record?
Answer: 75.4%

Question: For COc1cc(/C=C/C(=O)NC(c2ccccc2)c2ccccc2)ccc1-n1ccnc1 [compound 42], which inhibition at 1 µM is on record?
Answer: 75.8%

Question: For COc1cc(/C=C2\CCCN([C@@H](CO)c3ccc(F)cc3)C2=O)ccc1-n1cnc(C)c1 [compound 54], which inhibition at 1 µM is on record?
Answer: 14.2%

Question: With COc1ccc(CNC(=O)/C=C/c2ccc(-n3ccnc3)c(F)c2)cc1 [compound 40] as the compound, how does the inhibition at 1 µM read?
Answer: 59.4%

Question: Which inhibition at 1 µM does the source give for COc1cc(/C=C/C(=O)NCc2ccccc2C(F)(F)F)ccc1-n1ccnc1 [compound 37] here?
Answer: 77.1%

Question: With Cc1cn(-c2ccc(/C=C/C(=O)NC3CCc4ccccc43)cc2OC2CCCC2)cn1 (centres unmarked) [compound 47] as the compound, how does the inhibition at 1 µM read?
Answer: 63.8%

Question: How did the inhibition at 1 µM turn out when COc1cc(/C(F)=C(/C)C(=O)NC2CCc3ccccc32)ccc1-n1cnc(C)c1 (centres unmarked) [compound 61] was run?
Answer: 50.5%

Question: For O=C(/C=C/c1ccc(-n2ccnc2)c(C(F)(F)F)c1)NC1CCc2ccccc21 (centres unmarked) [compound 20], which inhibition at 1 µM is on record?
Answer: 76.7%

Question: With COc1cc(/C=C2\CCCN([C@H](C)c3ccc(C#N)s3)C2=O)ccc1-n1cnc(C)c1 [compound 63] as the compound, how does the inhibition at 1 µM read?
Answer: 70.7%

Question: With CC(O)c1cc(/C=C/C(=O)NC2CCc3ccccc32)ccc1-n1ccnc1 (centres unmarked) [compound 14] as the compound, how does the inhibition at 1 µM read?
Answer: 73.4%

Question: With Cc1cc(/C=C/C(=O)NC2CCc3ccccc32)ccc1-n1ccnc1 (centres unmarked) [compound 31] as the compound, how does the inhibition at 1 µM read?
Answer: 71%

Question: Cc1ncn(-c2ccc(/C=C/C(=O)NC3CCc4ccccc43)cc2F)c1C (centres unmarked) [compound 35] was tested. Which inhibition at 1 µM did it give?
Answer: 77.2%

Question: With COc1cc(/C=C/C(=O)NCc2cccc(F)c2)ccc1-n1ccnc1 [compound 29] as the compound, how does the inhibition at 1 µM read?
Answer: 62.8%

Question: With C/C(=C\C(=O)NC1CCc2ccccc21)c1ccc(-n2ccnc2)c(F)c1 (centres unmarked) [compound 64] as the compound, how does the inhibition at 1 µM read?
Answer: 78%

Question: For COc1cc(/C=C/C(=O)NC2CCCc3ccccc32)ccc1-n1ccnc1 (centres unmarked) [compound 33], which inhibition at 1 µM is on record?
Answer: 86.8%

Question: For COc1cc(/C=C2\CCN([C@@H](C)c3ccc(F)cc3)C2=O)ccc1-n1cnc(C)c1 [compound 56], which inhibition at 1 µM is on record?
Answer: 65.8%

Question: Cc1cn(-c2ccc(/C=C/C(=O)NC3CCc4ccccc43)cc2Br)cn1 (centres unmarked) [compound 18] was tested. Which inhibition at 1 µM did it give?
Answer: 75.3%

Question: COc1cc(/C=C/C(=O)N2CCC(n3c(=O)[nH]c4ccccc43)CC2)ccc1-n1ccnc1 [compound 52] was tested. Which inhibition at 1 µM did it give?
Answer: 51.4%

Question: For COc1cc(/C=C/C(=O)NCc2ccc(C(F)(F)F)cc2)ccc1-n1ccnc1 [compound 39], which inhibition at 1 µM is on record?
Answer: 53.2%

Question: Which inhibition at 1 µM does the source give for COc1cc(/C=C/C(=O)NCC2CCCCC2)ccc1-n1ccnc1 [compound 16] here?
Answer: 71.2%

Question: With COc1cc(/C=C/C(=O)NC2(c3ccccc3)CC2)ccc1-n1ccnc1 [compound 17] as the compound, how does the inhibition at 1 µM read?
Answer: 87.7%

Question: COc1cc(/C=C/C(=O)NCc2ccccc2)ccc1-n1ccnc1 [compound 28] was tested. Which inhibition at 1 µM did it give?
Answer: 70.5%

Question: Which inhibition at 1 µM does the source give for COc1cc(/C=C/C(=O)NCCc2ccc(Cl)cc2)ccc1-n1ccnc1 [compound 48] here?
Answer: 61.3%

Question: With COCc1cn(-c2ccc(/C=C/C(=O)NC3CCc4ccccc43)cc2F)cn1 (centres unmarked) [compound 43] as the compound, how does the inhibition at 1 µM read?
Answer: 55.8%

Question: COc1cc(/C=C2/C[C@H]3CCC[C@H](c4ccc(F)c(F)c4)N3C2=O)ccc1-n1cnc(C)c1 [compound 60] was tested. Which inhibition at 1 µM did it give?
Answer: 50.5%

Question: For COc1ccccc1CNC(=O)/C=C/c1ccc(-n2ccnc2)c(OC)c1 [compound 38], which inhibition at 1 µM is on record?
Answer: 63.7%

Question: For COc1cc(/C=C/C(=O)NC(Cc2ccccc2)c2ccccc2)ccc1-n1ccnc1 (centres unmarked) [compound 23], which inhibition at 1 µM is on record?
Answer: 71.6%

Question: For COc1cc(/C=C\C(=O)NC2CCc3ccccc32)ccc1-n1ccnc1 (centres unmarked) [compound 30], which inhibition at 1 µM is on record?
Answer: 66.4%

Question: COc1cc(/C=C/C(=O)NNCc2ccccc2)ccc1-n1ccnc1 [compound 45] was tested. Which inhibition at 1 µM did it give?
Answer: 68.8%

Question: Which inhibition at 1 µM does the source give for COc1cc(/C=C/C(=O)N2CCC3(CC2)OCc2ccccc23)ccc1-n1cc(C)nc1C [compound 50] here?
Answer: 52.3%

Question: Which inhibition at 1 µM does the source give for COc1cc(/C=C/C(=O)NCc2ccc(Cl)cc2)ccc1-n1ccnc1 [compound 13] here?
Answer: 65.9%

Question: COc1cc(/C=C/C(=O)NC2Cc3ccccc3C2)ccc1-n1ccnc1 [compound 27] was tested. Which inhibition at 1 µM did it give?
Answer: 69%

Question: For CS(=O)(=O)c1cc(/C=C/C(=O)NC2CCc3ccccc32)ccc1-n1ccnc1 (centres unmarked) [compound 34], which inhibition at 1 µM is on record?
Answer: 70.2%

Question: How did the inhibition at 1 µM turn out when COc1cc(/C=C/C(=O)N(C)Cc2ccccc2)ccc1-n1ccnc1 [compound 22] was run?
Answer: 66.3%

Question: Which inhibition at 1 µM does the source give for O=C(/C=C/c1ccc(-n2ccnc2)c(Cl)c1)NC1CCc2ccccc21 (centres unmarked) [compound 26] here?
Answer: 75.5%

Question: With COc1cc(/C=C/C(=O)N2C[C@H]2c2ccccc2)ccc1-n1cnc(C)c1 [compound 51] as the compound, how does the inhibition at 1 µM read?
Answer: 62.2%

Question: Which inhibition at 1 µM does the source give for CC(C)Oc1cc(/C=C/C(=O)NC2CCc3ccccc32)ccc1-n1ccnc1 (centres unmarked) [compound 44] here?
Answer: 64.6%

Question: COCc1cc(/C=C/C(=O)NC2CCc3ccccc32)ccc1-n1ccnc1 (centres unmarked) [compound 46] was tested. Which inhibition at 1 µM did it give?
Answer: 86.4%

Question: Which inhibition at 1 µM does the source give for COc1cc(/C=C2\CC[C@H]3COC[C@@H](c4cc(F)c(F)c(F)c4)N3C2=O)ccc1-n1cnc(C)c1 [compound 55] here?
Answer: 66.8%

Question: With COc1cc(/C=C2\NC(=S)N(Cc3ccccc3)C2=O)ccc1-n1cnc(C)c1 [compound 62] as the compound, how does the inhibition at 1 µM read?
Answer: 68.2%

Question: How did the inhibition at 1 µM turn out when COc1cc(/C=C2\NC(=O)N(Cc3ccccc3)C2=O)ccc1-n1cnc(C)c1 [compound 59] was run?
Answer: 51.9%

Question: How did the inhibition at 1 µM turn out when O=Cc1cc(/C=C/C(=O)NC2CCc3ccccc32)ccc1-n1ccnc1 (centres unmarked) [compound 15] was run?
Answer: 73.3%

Question: How did the inhibition at 1 µM turn out when CCC(NC(=O)/C=C/c1ccc(-n2cnc(C)c2)c(OC)c1)c1cccnc1 (centres unmarked) [compound 36] was run?
Answer: 75.7%

Question: COc1cc(/C=C/C(=O)NCCc2cccc(Cl)c2)ccc1-n1ccnc1 [compound 41] was tested. Which inhibition at 1 µM did it give?
Answer: 71.8%

Question: With COc1cc(C#CC(=O)NC(C)c2ccccc2)ccc1-n1cnc(C)c1 (centres unmarked) [compound 58] as the compound, how does the inhibition at 1 µM read?
Answer: 64.6%

Question: CC(=O)c1cc(/C=C/C(=O)NC2CCc3ccccc32)ccc1-n1ccnc1 (centres unmarked) [compound 21] was tested. Which inhibition at 1 µM did it give?
Answer: 81.9%
